Measurements taken from ChEMBL document CHEMBL4390677, “Topographical Mapping of Isoform-Selectivity Determinants for J-Channel-Binding Inhibitors of Sphingosine Kinases 1 and 2” (J Med Chem, 2019).

Experiments:
Sphingosine kinase 2 [1] = molecular target: T1, Sphingosine kinase 2 (Homo sapiens, UniProt Q9NRA0); assay: Inhibition of SK2 (unknown origin)
T1 sequence (Q9NRA0 whole entry): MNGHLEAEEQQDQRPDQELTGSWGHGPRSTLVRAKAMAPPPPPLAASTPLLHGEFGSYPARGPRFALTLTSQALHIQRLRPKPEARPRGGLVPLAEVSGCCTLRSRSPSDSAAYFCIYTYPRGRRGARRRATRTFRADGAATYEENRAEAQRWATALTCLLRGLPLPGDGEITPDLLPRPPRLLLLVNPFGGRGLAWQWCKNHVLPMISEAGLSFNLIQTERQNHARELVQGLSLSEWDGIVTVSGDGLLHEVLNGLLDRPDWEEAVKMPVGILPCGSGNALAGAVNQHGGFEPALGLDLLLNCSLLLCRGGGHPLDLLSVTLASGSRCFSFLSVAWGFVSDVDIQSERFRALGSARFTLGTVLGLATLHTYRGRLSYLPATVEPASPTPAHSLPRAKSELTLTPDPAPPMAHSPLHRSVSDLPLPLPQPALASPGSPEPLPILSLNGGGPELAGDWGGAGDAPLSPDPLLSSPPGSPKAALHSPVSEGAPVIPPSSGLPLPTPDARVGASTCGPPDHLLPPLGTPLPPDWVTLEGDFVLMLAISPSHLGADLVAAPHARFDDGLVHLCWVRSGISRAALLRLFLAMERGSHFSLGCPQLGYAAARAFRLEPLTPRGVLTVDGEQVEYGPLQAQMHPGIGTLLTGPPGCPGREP

Sphingosine kinase 2 [2] = molecular target: T1, Sphingosine kinase 2; assay: Inhibition of recombinant human full-length N-terminal His-tagged SK2 expressed in baculovirus infected Sf9 insect cells using Sph as substrate measured after 30 mins in presence of [gamma32P]ATP by Cerenkov counting analysis
Homo sapiens = species on record: Homo sapiens; assay: Selectivity index, ratio of IC50 for GFP-tagged SK1 (unknown origin) expressed in HEK293 cells to IC50 for purified SK2 (unknown origin)
Sphingosine kinase 1 = Sphingosine kinase 1 (Homo sapiens, UniProt Q9NYA1); assay: Inhibition of GFP-tagged SK1 (unknown origin) expressed in HEK293 cells using Sph as substrate measured after 30 mins in presence of [gamma32P]ATP by Cerenkov counting analysis; format: cell-based
[3] = molecular target: T2, Sphingosine kinase 2 (Homo sapiens) (UniProt Q9NRA0); assay: Inhibition of recombinant human full-length N-terminal His-tagged SK2 expressed in baculovirus infected Sf9 insect cells at 3 uM using Sph as substrate measured after 30 mins in presence of [gamma32P]ATP by Cerenkov counting analysis relative to control
T2 sequence (whole entry): T1 sequence (Q9NRA0 whole entry)

Chain of Sphingosine kinase 1 (Q9NYA1 whole entry): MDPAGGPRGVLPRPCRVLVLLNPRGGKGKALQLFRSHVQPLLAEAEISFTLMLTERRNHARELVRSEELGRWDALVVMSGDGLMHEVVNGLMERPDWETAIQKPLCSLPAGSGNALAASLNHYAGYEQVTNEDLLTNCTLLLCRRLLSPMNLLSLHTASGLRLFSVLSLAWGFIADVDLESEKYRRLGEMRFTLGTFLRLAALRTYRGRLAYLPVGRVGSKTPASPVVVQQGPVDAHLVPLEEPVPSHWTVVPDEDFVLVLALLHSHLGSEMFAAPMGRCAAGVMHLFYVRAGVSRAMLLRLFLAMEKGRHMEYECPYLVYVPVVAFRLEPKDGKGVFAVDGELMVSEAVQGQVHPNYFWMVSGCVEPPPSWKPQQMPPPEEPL

Structure (SMILES)	Ki (Sphingosine kinase 2 [1]) [µM]	IC50 (Sphingosine kinase 2 [2]) [µM]	Ratio IC50 (Homo sapiens)	IC50 (Sphingosine kinase 1) [µM]	inhibition [3] [%]
Oc1ccc(Nc2nc(-c3ccc(Cl)cc3)cs2)cc1	6.7				
OC[C@H]1CCCN1Cc1ccc(COc2cccc(OCc3ccccc3Cl)c2)cc1		0.151	0.26	0.039	
COc1ccc(COc2cccc(OCc3ccc(CN4CCC[C@@H]4CO)cc3)c2)cc1		0.119	> 25	> 3	
OC[C@H]1CCCN1Cc1ccc(COc2cccc(CCc3ccccc3)c2)cc1		0.035	0.74	0.026	
OC[C@H]1CCCN1Cc1ccc(COc2cccc(OCc3cccc(Cl)c3)c2)cc1		0.412	0.11	0.044	
OC[C@H]1CCCN1Cc1ccc(COc2cccc(OCc3ccccc3)c2)cc1		0.016	0.88	0.014	
O=S(=O)(Oc1cccc(OCc2ccc(CN3CCC[C@@H]3CO)cc2)c1)c1ccccc1		0.902	0.012	0.011	
OC[C@H]1CCCN1Cc1ccc(COc2cccc(OCc3ccc(Cl)cc3)c2)cc1		0.041	101	4.13	
O=S(=O)(Cc1cccc(OCc2ccc(CN3CCC[C@@H]3CO)cc2)c1)c1ccccc1			< 0.048	0.144	16
OC[C@H]1CCCN1Cc1ccc(COc2cccc(SCc3ccc(F)cc3)c2)cc1		0.017	45	0.765	
OC[C@H]1CCCN1Cc1ccc(COc2cccc(SCc3ccccc3)c2)cc1		0.026	5.3	0.137	
OC[C@H]1CCCN1Cc1ccc(COc2cccc(OCc3cccc(F)c3)c2)cc1		0.143	0.063	0.009	
OC[C@H]1CCCN1Cc1ccc(COc2cccc(OCc3ccc(F)cc3)c2)cc1		0.049	3.5	0.17	
OC[C@H]1CCCN1Cc1ccc(COc2cccc(SCc3ccc(Cl)cc3)c2)cc1		0.031	76	2.36	
OC[C@H]1CCCN1Cc1ccc(COc2cccc(OCc3ccccc3F)c2)cc1		0.055	0.75	0.041	
N#Cc1ccc(COc2cccc(OCc3ccc(CN4CCC[C@@H]4CO)cc3)c2)cc1		1.12	> 2.7	> 3	
